# Patent US20250382344A1, “Soluble GLP1/GIP/NPY2 Receptor Triple Agonists” (Boehringer Ingelheim International GmH, priority 2024, published 2025)
# Tests used:
# [1] = Mouse PK after intravenous application; format: in vivo; conditions: plasma, male NMRI mice, intravenous 30-60 nmol/kg, non-compartmental analysis
# Method: Pharmacokinetic parameters of the peptides were determined after intravenous application to NMRI mice (Naval Medical Research Institute mice). Male NMRI mice were obtained from Janvier Laboratories (France) weighing 30 g to 40 g. Mice were housed in standard cages with a 12:12 hours light:dark cycle and standard food and water access ad libitum. Each test peptide was dissolved in 50 mM phosphate buffer (pH 7.4)/3.5% mannitol. Intravenous application of 30-60 nmol/kg was performed via the tail vein. Serial blood samples from conscious mice were collected from the saphenous vein in EDTA-containing vials at different time points up to 56 hours post-dosing. Subsequently, plasma was prepared by centrifugation for 5 minutes at approximately 5000 rpm and stored at −20° C. until quantification of the peptide plasma levels by liquid chromatography mass spectrometry (LC-MS). Individual plasma concentration-time profiles were analysed by a non-compartmental approach and the resulting pharmacokinetic parameters were calculated.
# [2] = Solubility in 0.1 M phosphate buffer at pH 7; format: physicochemical; conditions: 0.1 M phosphate buffer at pH 7, 10 mg/mL final peptide concentration, shaking 2 hours at room temperature, peptides as TFA-salts, measured sample pH 6.5-7.0; for solubility: read-out: Solubility
# hGIPR = biological target: T1, hGIPR (Homo sapiens, UniProt P48546); test: hGIPR CreLuc assay in 0.5% and 100% plasma (CHO CRE-luciferase reporter cells); format: cell-based; conditions: 0.5% human plasma, read-out: hGIPR 0.5% hP
# T1 construct: expressed in transfected cells; host or cells: CHO CRE-luciferase reporter cells
# T1 sequence (P48546 22-466): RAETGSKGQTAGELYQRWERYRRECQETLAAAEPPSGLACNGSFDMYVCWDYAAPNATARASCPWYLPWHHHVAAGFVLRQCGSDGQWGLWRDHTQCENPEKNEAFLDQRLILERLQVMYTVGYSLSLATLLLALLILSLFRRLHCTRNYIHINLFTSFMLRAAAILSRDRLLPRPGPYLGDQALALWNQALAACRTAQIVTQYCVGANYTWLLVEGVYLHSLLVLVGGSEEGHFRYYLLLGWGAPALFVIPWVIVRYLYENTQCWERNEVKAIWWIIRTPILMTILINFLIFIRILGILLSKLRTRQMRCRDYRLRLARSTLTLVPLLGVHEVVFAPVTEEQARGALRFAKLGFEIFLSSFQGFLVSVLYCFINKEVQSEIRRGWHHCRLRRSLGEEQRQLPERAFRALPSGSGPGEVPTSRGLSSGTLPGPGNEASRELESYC
# hNPY2R = biological target: T2, hNPY2R (Homo sapiens, UniProt P49146); test: hNPY2R CreLuc assay in 0.5% and 100% plasma (HEK-293 CRE-luciferase reporter cells); format: cell-based; conditions: 0.5% human plasma, HEK-293 reporter cells, read-out: hNPY2R 0.5% hP
# T2 construct: expressed in transfected cells; host or cells: HEK-293 CRE-luciferase reporter cells
# T2 sequence (P49146 1-381): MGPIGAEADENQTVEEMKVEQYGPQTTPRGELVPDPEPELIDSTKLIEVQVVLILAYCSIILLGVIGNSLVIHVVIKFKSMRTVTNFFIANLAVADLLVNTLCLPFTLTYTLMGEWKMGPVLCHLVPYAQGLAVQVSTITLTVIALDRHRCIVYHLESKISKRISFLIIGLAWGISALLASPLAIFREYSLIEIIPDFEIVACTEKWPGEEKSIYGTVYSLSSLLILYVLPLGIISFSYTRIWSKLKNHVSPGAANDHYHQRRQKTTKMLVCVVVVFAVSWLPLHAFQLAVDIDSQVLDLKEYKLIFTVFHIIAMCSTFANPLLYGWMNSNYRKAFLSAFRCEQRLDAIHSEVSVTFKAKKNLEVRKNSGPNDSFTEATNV
# hGLP1R = biological target: T3, hGLP1R (Homo sapiens, UniProt P43220); test: hGLP1R CreLuc assay in 0.5% and 100% plasma (HEK-293 CRE-luciferase reporter cells); format: cell-based; conditions: 0.5% human plasma, HEK-293 reporter cells, read-out: hGLP1R 0.5% hP
# T3 construct: expressed in transfected cells; host or cells: HEK-293 CRE-luciferase reporter cells
# T3 sequence (P43220 24-463): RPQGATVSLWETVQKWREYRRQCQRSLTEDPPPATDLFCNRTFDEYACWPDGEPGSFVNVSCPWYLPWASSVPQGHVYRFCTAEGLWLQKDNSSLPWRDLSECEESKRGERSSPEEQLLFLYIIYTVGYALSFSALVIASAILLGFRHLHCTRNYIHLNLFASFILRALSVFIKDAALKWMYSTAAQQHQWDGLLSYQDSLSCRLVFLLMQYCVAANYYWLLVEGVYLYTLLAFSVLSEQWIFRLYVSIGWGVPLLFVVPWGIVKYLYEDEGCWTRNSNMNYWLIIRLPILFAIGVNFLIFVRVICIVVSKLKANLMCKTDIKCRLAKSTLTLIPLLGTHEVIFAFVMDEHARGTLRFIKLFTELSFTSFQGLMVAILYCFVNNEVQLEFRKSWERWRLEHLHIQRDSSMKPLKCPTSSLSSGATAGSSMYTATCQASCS
SMILES,MRT [1] [h],solubility [2] [µg/mL],EC50 (hGIPR) [nM],solubility at 2 h [2] [µg/mL],EC50 (hNPY2R) [nM],EC50 (hGLP1R) [nM]
"CC[C@H](C)[C@H](NC(=O)[C@H](CC(C)C)NC(=O)[C@H](Cc1c[nH]cn1)NC(=O)[C@H](CCCNC(=N)N)NC(=O)[C@@H](NC(=O)[C@H](Cc1ccccc1)NC(=O)[C@H](C)NC(=O)C(C)(C)NC(=O)[C@H](CCC(N)=O)NC(=O)[C@H](C)NC(=O)[C@H](CCC(N)=O)NC(=O)[C@H](CCCCN)NC(=O)[C@H](CCC(=O)O)NC(=O)[C@H](CC(C)C)NC(=O)C(C)(C)NC(=O)[C@@H](NC(=O)[C@H](CO)NC(=O)[C@H](Cc1ccc(O)cc1)NC(=O)[C@H](CC(=O)O)NC(=O)[C@H](CO)NC(=O)[C@@H](NC(=O)[C@H](Cc1ccccc1)NC(=O)[C@@H](NC(=O)CNC(=O)[C@H](CCC(=O)O)NC(=O)C(C)(C)NC(=O)[C@@H](N)Cc1ccc(O)cc1)[C@@H](C)O)[C@@H](C)O)[C@@H](C)CC)C(C)C)C(=O)N[C@@H](CC(N)=O)C(=O)N[C@@H](CCCCNC(=O)CCCCCNC(=O)CC[C@H](NC(=O)CC[C@H](NC(=O)CC[C@H](NC(=O)CC[C@H](NC(=O)CC[C@H](NC(=O)CC[C@H](NC(=O)CCCCCCCCCCCCCCCCC(=O)O)C(=O)O)C(=O)O)C(=O)O)C(=O)O)C(=O)O)C(=O)O)C(=O)NC(C)(C)C(=O)N[C@H](C(=O)N[C@@H](CCCNC(=N)N)C(=O)N[C@@H](CCC(N)=O)C(=O)N[C@@H](CCCNC(=N)N)C(=O)N[C@@H](Cc1ccc(O)cc1)C(N)=O)[C@@H](C)O [Compound 9, Y-Aib-E-G-T-F-T-S-D-Y-S-I-Aib-L-E-K-Q-A-Q-Aib-A-F-V-R-H-L-I-N-K(1,3)-Aib-T-R-Q-R-Y-NH2.C18DA-gGlu-gGlu-gGlu-gGlu-gGlu-gGlu-AHX(1,2)]",7.5,4700,,,,
"CC[C@H](C)[C@H](NC(=O)[C@H](CC(C)C)NC(=O)[C@H](Cc1c[nH]cn1)NC(=O)[C@H](CCCNC(=N)N)NC(=O)[C@@H](NC(=O)[C@H](Cc1ccccc1)NC(=O)[C@H](C)NC(=O)C(C)(C)NC(=O)[C@H](CCC(N)=O)NC(=O)[C@H](C)NC(=O)[C@H](CCC(N)=O)NC(=O)[C@H](CCCCN)NC(=O)[C@H](CCC(=O)O)NC(=O)[C@H](CC(C)C)NC(=O)C(C)(C)NC(=O)[C@@H](NC(=O)[C@H](CO)NC(=O)[C@H](Cc1ccc(O)cc1)NC(=O)[C@H](CC(=O)O)NC(=O)[C@H](CO)NC(=O)[C@@H](NC(=O)[C@H](Cc1ccccc1)NC(=O)[C@@H](NC(=O)CNC(=O)[C@H](CCC(=O)O)NC(=O)C(C)(C)NC(=O)[C@@H](N)Cc1ccc(O)cc1)[C@@H](C)O)[C@@H](C)O)[C@@H](C)CC)C(C)C)C(=O)N[C@@H](CC(N)=O)C(=O)N[C@@H](CCCCNC(=O)CCCCCNC(=O)CC[C@H](NC(=O)CC[C@H](NC(=O)CC[C@H](NC(=O)CC[C@H](NC(=O)CC[C@H](NC(=O)CCCCCCCCCCCCCCCCC(=O)O)C(=O)O)C(=O)O)C(=O)O)C(=O)O)C(=O)O)C(=O)N[C@@H](CC(C)C)C(=O)N[C@H](C(=O)N[C@@H](CCCNC(=N)N)C(=O)N[C@@H](CCC(N)=O)C(=O)N[C@@H](CCCNC(=N)N)C(=O)N[C@@H](Cc1ccc(O)cc1)C(N)=O)[C@@H](C)O [Compound 69, Y-Aib-E-G-T-F-T-S-D-Y-S-I-Aib-L-E-K-Q-A-Q-Aib-A-F-V-R-H-L-I-N-K(1,3)-L-T-R-Q-R-Y-NH2.C18DA-gGlu-gGlu-gGlu-gGlu-gGlu-AHX(1,2)]",4.6,4800,,,,
"CC[C@H](C)[C@H](NC(=O)[C@H](CC(C)C)NC(=O)[C@H](Cc1c[nH]cn1)NC(=O)[C@H](CCCNC(=N)N)NC(=O)[C@@H](NC(=O)[C@H](Cc1ccccc1)NC(=O)[C@H](C)NC(=O)C(C)(C)NC(=O)[C@H](CCC(N)=O)NC(=O)[C@H](C)NC(=O)[C@H](CCC(N)=O)NC(=O)[C@H](CCCCN)NC(=O)[C@H](CC(=O)O)NC(=O)[C@H](CC(C)C)NC(=O)C(C)(C)NC(=O)[C@@H](NC(=O)[C@H](CO)NC(=O)[C@H](Cc1ccc(O)cc1)NC(=O)[C@H](CC(=O)O)NC(=O)[C@H](CO)NC(=O)[C@@H](NC(=O)[C@H](Cc1ccccc1)NC(=O)[C@@H](NC(=O)CNC(=O)[C@H](CCC(=O)O)NC(=O)C(C)(C)NC(=O)[C@@H](N)Cc1ccc(O)cc1)[C@@H](C)O)[C@@H](C)O)[C@@H](C)CC)C(C)C)C(=O)N[C@@H](CC(N)=O)C(=O)N[C@@H](CCCCNC(=O)[C@@H](N)CCCCNC(=O)CC[C@H](NC(=O)[C@H](CCC(=O)O)NC(=O)CC[C@H](NC(=O)CC[C@H](NC(=O)CC[C@H](NC(=O)CC[C@H](NC(=O)CCCCCCCCCCCCCCCCCCC(=O)O)C(=O)O)C(=O)O)C(=O)O)C(=O)O)C(=O)O)C(=O)NC(C)(C)C(=O)N[C@H](C(=O)N[C@@H](CCCNC(=N)N)C(=O)N[C@@H](CCC(N)=O)C(=O)N[C@@H](CCCNC(=N)N)C(=O)N[C@@H](Cc1ccc(O)cc1)C(N)=O)[C@@H](C)O [Compound 74, Y-Aib-E-G-T-F-T-S-D-Y-S-I-Aib-L-D-K-Q-A-Q-Aib-A-F-V-R-H-L-I-N-K(1,3)-Aib-T-R-Q-R-Y-NH2.C20DA-gGlu-gGlu-gGlu-gGlu-gGlu-gGlu-eLys(1,2)]",16.4,8600,,,,
"CC[C@H](C)[C@H](NC(=O)[C@H](CC(C)C)NC(=O)[C@H](Cc1c[nH]cn1)NC(=O)[C@H](CCCNC(=N)N)NC(=O)[C@@H](NC(=O)[C@H](Cc1ccccc1)NC(=O)[C@H](C)NC(=O)C(C)(C)NC(=O)[C@H](CCC(N)=O)NC(=O)[C@H](C)NC(=O)[C@H](CCC(N)=O)NC(=O)[C@H](CCCCN)NC(=O)[C@H](CCC(=O)O)NC(=O)[C@H](CC(C)C)NC(=O)C(C)(C)NC(=O)[C@@H](NC(=O)[C@H](CO)NC(=O)[C@H](Cc1ccc(O)cc1)NC(=O)[C@H](CC(=O)O)NC(=O)[C@H](CO)NC(=O)[C@@H](NC(=O)[C@H](Cc1ccccc1)NC(=O)[C@@H](NC(=O)CNC(=O)[C@H](CCC(=O)O)NC(=O)C(C)(C)NC(=O)[C@@H](N)Cc1ccc(O)cc1)[C@@H](C)O)[C@@H](C)O)[C@@H](C)CC)C(C)C)C(=O)N[C@@H](CC(N)=O)C(=O)N[C@@H](CCCCNC(=O)CCCCCNC(=O)CC[C@H](NC(=O)CC[C@H](NC(=O)CC[C@H](NC(=O)CC[C@H](NC(=O)CC[C@H](NC(=O)CCCCCCCCCCCCCCCCCCC(=O)O)C(=O)O)C(=O)O)C(=O)O)C(=O)O)C(=O)O)C(=O)NC(C)(C)C(=O)N[C@H](C(=O)N[C@@H](CCCNC(=N)N)C(=O)N[C@@H](CCC(N)=O)C(=O)N[C@@H](CCCNC(=N)N)C(=O)N[C@@H](Cc1ccc(O)cc1)C(N)=O)[C@@H](C)O [Compound 167, Y-Aib-E-G-T-F-T-S-D-Y-S-I-Aib-L-E-K-Q-A-Q-Aib-A-F-V-R-H-L-I-N-K(1,3)-Aib-T-R-Q-R-Y-NH2.C20DA-gGlu-gGlu-gGlu-gGlu-gGlu-AHX(1,2)]",,,0.2,10000,13.3,1
